Results reported in patent US11046716B2, “Beta-lactamase inhibitors” (priority 2015, dated 2021).
Read-outs that look alike come from different tables or passages of the source.

Experiments:
KPC-2 = target: T1, KPC-2 (Klebsiella pneumoniae, UniProt Q9F663); assay: β-lactamase enzyme inhibition assay, KPC-2 (imipenem substrate); type: biochemical
T1 construct: made in house; host or cells: E. coli BL21(DE3)
Method: (§1) For SHV-5, Kpc-2, p99AmpC and OXA-1 β-lactamases, E. coli BL21(DE3) bacterial cells carrying expression plasmids (expressed as native untagged proteins) for the individual β-lactamases were grown in 1 L of Superbroth (Teknova Inc. Hollister, Calif.) supplemented with 100 μg/ml kanamycin selection and 1×5052 (0.5% glycerol, 0.05% glucose and 0.2% α-lactose) at 35° C. for 18-20 hours. Cells were harvested by centrifugation (4,000×g, 4° C., 20 min), resuspended in 50 ml of 10 mM HEPES pH 7.5 ( 1/20 of the initial volume). The cells were lysed by sonication (5 pulses of 45 seconds) at 45 W on ice. The lysates were clarified by centrifugation at 10,000×g for 40 minutes at 4° C. Samples were diluted 5-fold in 50 mM sodium acetate pH 5.0, stored overnight at 4° C., after which they were centrifuged at 10,000×g for 30 minutes to clarify, and filtered through 0.45 μm filters. The samples were loaded onto a 5 ml Capto S sepharose cation exchange column (GE Healthcare) pre-equilibrated with 50 mM sodium acetate pH 5.0. The column was washed with 5 column volumes of 50 mM sodium acetate pH 5.0 to wash out unbound protein and a linear gradient of NaCl (0 to 500 mM) was used to elute the protein (over 16 CV) from the column. Fractions were assayed for β-lactamase activity using Centa (Calbiochem, Gibbstown, N.J.) or Nitrocefin (EMD Millipore chemicals, Darmstadt, Germany) as a reporter β-lactamase substrate for activity in the isolated fractions. Active fractions were pooled, concentrated and further purified by gel filtration chromatography on a Superdex 75 prep grade gel filtration column (GE Healthcare, Piscataway, N.J.) pre-equilibrated in 50 mM Hepes pH 7.5, 150 mM NaCl. Active fractions were pooled concentrated, quantitated by BCA protein determination (Thermo Scientific, Rockford, Ill.), dialyzed into PBS and frozen at −80° C. in 20% glycerol until use.
(§2) An equal volume of diluted enzyme stock was added, and the plates were incubated at 37° C. for 15 min. Nitrocefin was used as substrate for p99 AmpC, VIM-2 and OXA-1 and dispensed into each well at a final concentration of 100 μM. Absorbance at 486 nm was immediately monitored for 10 min using a Biotek Powerwave XS2 microplate spectrophotometer using the GEN5 software package (Biotek Instruments, Winooski Vt.). In an analogous fashion, imipenem was used as substrate for Kpc-2 and Cefotaxime was used for SHV-5, while changes in absorbance upon hydrolysis of the β-lactam ring were monitored at 300 nm and 260 nm respectively in UV-transparent 96-well microtiter assay plates. Maximum rates of hydrolysis were compared to those in control wells (without inhibitors), and percentages of enzyme inhibition were calculated for each concentration of inhibitor. The concentration of inhibitor needed to reduce the initial rate of hydrolysis of substrate by 50% (IC50) was calculated as the residual activity of β-lactamase at 486 nm using GraFit version 7 kinetics software package (Erithacus Software, Surrey, UK).
(§3) Using the methodology described above, examples of the current invention were evaluated for their ability to inhibit β-lactamase enzymes from all four Ambler classifications (A through D). […] NT=Not tested.

[1] = test system: P. aeruginosa expressing the Class B carbapenemase VIM-2; assay: Broth microdilution MIC assay with meropenem, P. aeruginosa VIM-2; type: cell-based; details: for MIC (μg/mL) of Exemplary Compounds in presence of fixed β-lactams: P. aerug. 2775 VIM-2: Fixed Mero (meropenem) 4 μg/mL
Source text: (§4) To determine the ability of test compounds to potentiate the inhibition of the growth of bacterial strains that produce beta-lactamase enzymes in the presence of a β-lactam antibiotic, classic cell based broth microdilution MIC assays were employed. Six bacteria strains producing beta-lactamase enzymes were used: E. coli expressing the Class A Extended Spectrum Beta-Lactamase (ESBL) CTX-M-15, E. cloacae expressing the Class C P99, K. pneumoniae expressing the Class A carbapenemase KPC-2, P. aeruginosa expressing the Class B carbapenemase VIM-2, K. pneumoniae expressing the class A carbapenemase KPC-2 and the class B carbapenemase VIM-4, and K. pneumoniae producing the Class D carbapenemase OXA-48. The assay was conducted in Cation Adjusted Mueller Hinton Broth (CAMHB, BD #212322, BD Diagnostic Systems, Sparks, Md.). Bacteria strains were grown for 3-5 hours in CAMBH broth. Test compounds (Examples 1-94) were added to a microtiter plate in 2-fold serial dilutions in CAMHB in a final concentration range of 16 μg/mL to 0.125 μg/ml. An overlay of CAMHB containing a Beta-lactam was added to the compounds at a final static concentration of 4 μg/ml. […] In addition to the titration of test compounds the MICs of a panel of control beta-lactams is also tested to ensure the strains are behaving consistently from test to test. Once the test compound and antibiotics are added the plates can be inoculated according to CLSI broth microdilution method. After inoculation the plates are incubated for 16-20 hours at 37° C. then the Minimal Inhibitory Concentration (MIC) of the test compound is determined visually.
(§5) Using the methodology described above, examples of the current invention were evaluated for their ability to inhibit the growth of β-lactamase-producing bacteria in the presence of a β-lactam antibiotic.

[2] = test system: K. pneumoniae producing the Class D carbapenemase OXA-48; assay: Broth microdilution MIC assay with meropenem, K. pneumoniae OXA-48; type: cell-based; details: for MIC (μg/mL) of Exemplary Compounds in presence of fixed β-lactams: K. p. 11978 OXA-48: Fixed Mero (meropenem) 4 μg/mL
Source text: as §4, §5

[3] = test system: E. coli expressing the Class A Extended Spectrum Beta-Lactamase (ESBL) CTX-M-15; assay: Broth microdilution MIC assay with ceftazidime, E. coli CTX-M-15; type: cell-based; details: Fixed CAZ (ceftazidime) 4 μg/mL; E. coli ESBL4 CTX-M-15
Source text: as §4, §5

[4] = test system: K. pneumoniae expressing the class A carbapenemase KPC-2 and the class B carbapenemase VIM-4; assay: Broth microdilution MIC assay with meropenem, K. pneumoniae KPC-2 and VIM-4; type: cell-based; details: for MIC (μg/mL) of Exemplary Compounds in presence of fixed β-lactams: K. p. A-1797 KPC-2 VIM-4: Fixed Mero (meropenem) 4 μg/mL
Source text: as §4, §5

VIM-2 = target: T2, VIM-2 (Escherichia coli, UniProt Q5U7L7); assay: β-lactamase enzyme inhibition assay, VIM-2 (nitrocefin substrate); type: biochemical
T2 construct: made in house; host or cells: E. coli BL21(DE3)
Method: For Vim-2 metallo β-lactamase, the procedure was identical with the following exceptions, first the protein was not pH adjusted to pH 5 with 50 mM sodium acetate, second, the chromatography step was changed to a 5 ml Q sepharose anion exchange column pre-equilibrated with 50 mM Hepes pH 7.5, and elution of the protein was achieved by a linear gradient of NaCl (0-600 mM). Finally, the VIM-2 purification required a second run (3rd step) on the Q sepharose anion exchange column to achieve acceptable purity (>90%).
as §2, §3

SHV-5 = target: T3, SHV-5 (Klebsiella pneumoniae, UniProt P0A3M1); assay: β-lactamase enzyme inhibition assay, SHV-5 (cefotaxime substrate); type: biochemical
T3 construct: made in house; host or cells: E. coli BL21(DE3)
Method: as §1, §2, §3

AmpC = target: T4, AmpC (Enterobacter cloacae, UniProt P05364); assay: β-lactamase enzyme inhibition assay, p99 AmpC (nitrocefin substrate); type: biochemical
T4 construct: made in house; host or cells: E. coli BL21(DE3)
Method: as §1, §2, §3

OXA-48 = OXA-48 (UniProt Q6XEC0); assay: β-lactamase enzyme inhibition assay, Class D oxacillinase; type: biochemical; details: read-out: OXA-48
[5] = test system: K. pneumoniae expressing the Class A carbapenemase KPC-2; assay: Broth microdilution MIC assay with meropenem, K. pneumoniae KPC-2; type: cell-based; details: for MIC (μg/mL) of Exemplary Compounds in presence of fixed β-lactams: K. p. 156319 KPC-3: Fixed Mero (meropenem) 4 μg/mL
Source text: as §4, §5

[6] = Class A, imipenem substrate, 300 nm, read-out: KPC-2
[7] = Class B, nitrocefin substrate, 486 nm, read-out: VIM-2
[8] = Klebsiella pneumoniae, read-out: MIC alone

T1 sequence (Q9F663 25-293, looked up): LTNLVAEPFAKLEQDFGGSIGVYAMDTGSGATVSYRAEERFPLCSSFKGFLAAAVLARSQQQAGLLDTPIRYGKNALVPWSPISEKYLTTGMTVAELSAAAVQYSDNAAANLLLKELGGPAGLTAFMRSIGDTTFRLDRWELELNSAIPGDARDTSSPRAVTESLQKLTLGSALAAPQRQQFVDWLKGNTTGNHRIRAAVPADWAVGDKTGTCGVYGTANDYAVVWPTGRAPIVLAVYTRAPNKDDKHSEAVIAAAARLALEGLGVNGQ
T3 sequence (P0A3M1 22-286): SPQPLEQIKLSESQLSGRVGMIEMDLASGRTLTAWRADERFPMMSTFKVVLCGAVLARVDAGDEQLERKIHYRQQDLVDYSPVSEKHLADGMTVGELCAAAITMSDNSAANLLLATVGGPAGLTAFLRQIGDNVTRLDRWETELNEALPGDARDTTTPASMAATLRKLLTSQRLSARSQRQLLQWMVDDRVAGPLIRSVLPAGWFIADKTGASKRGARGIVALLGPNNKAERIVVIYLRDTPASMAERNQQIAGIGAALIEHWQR
T4 sequence (P05364 21-381): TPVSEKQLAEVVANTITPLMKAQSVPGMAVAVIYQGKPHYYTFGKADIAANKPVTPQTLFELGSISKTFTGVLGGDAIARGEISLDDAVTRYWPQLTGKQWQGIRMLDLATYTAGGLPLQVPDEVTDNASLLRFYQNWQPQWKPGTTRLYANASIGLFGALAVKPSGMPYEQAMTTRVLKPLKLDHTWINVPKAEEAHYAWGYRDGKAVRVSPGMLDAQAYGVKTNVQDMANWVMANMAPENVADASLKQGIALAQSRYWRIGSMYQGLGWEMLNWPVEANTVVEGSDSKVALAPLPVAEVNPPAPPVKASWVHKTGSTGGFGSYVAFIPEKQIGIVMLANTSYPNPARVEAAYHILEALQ

Structure (SMILES) | IC50 (KPC-2; [6]) [nM] | MIC (μg/mL) of Exemplary Compounds in presence of fixed β-lactams: P. aerug. 2775 VIM-2 [1] | MIC (μg/mL) of Exemplary Compounds in presence of fixed β-lactams: K. p. 11978 OXA-48 [2] | MIC (μg/mL) of Exemplary Compounds in presence of fixed β-lactams: E. coli ESBL4 CTX-M-15 [3] | MIC (μg/mL) of Exemplary Compounds in presence of fixed β-lactams: K. p. A-1797 KPC-2 VIM-4 [4] | IC50 (VIM-2; [7]) [nM] | IC50 (SHV-5) [nM] | IC50 (AmpC) [nM] | IC50 (OXA-48) [nM] | MIC (μg/mL) of Exemplary Compounds in presence of fixed β-lactams: K. p. 156319 KPC-3 [5] | IC50 (KPC-2) [nM] | IC50 (VIM-2) [nM] | MIC ([1]; Pseudomonas aeruginosa, read-out: MIC alone) [µg/mL] | MIC [2, 8] [µg/mL] | MIC [4, 8] [µg/mL] | MIC [5, 8] [µg/mL]
NCC#Cc1c(CN)nnn1CC(=O)N[C@H]1Cc2cccc(C(=O)O)c2OB1O [Example 109, (R)-3-(2-(4-(aminomethyl)-5-(3-aminoprop-1-yn-1-yl)-1H-1,2,3-triazol-1-yl)acetamido)-2-hydroxy-3,4-dihydro-2H-benzo[e][1,2]oxaborinine-8-carboxylic acid] | 100 to 1000 | C (C represents an MIC of <1 μg/mL) | B (B represents an MIC between 1 and 16 μg/mL inclusive) | C (C represents an MIC of <1 μg/mL) | C (C represents an MIC of <1 μg/mL) | < 100 | 100 to 1000 | 100 to 1000 | < 100 | B (B represents an MIC between 1 and 16 μg/mL inclusive) |  |  |  |  |  | 
O=C(Cn1cc(CNCCCC(F)(F)F)nn1)N[C@H]1Cc2cccc(C(=O)O)c2OB1O [Example 112, (R)-2-hydroxy-3-(2-(4-(((4,4,4-trifluorobutyl)amino)methyl)-1H-1,2,3-triazol-1-yl)acetamido)-3,4-dihydro-2H-benzo[e][1,2]oxaborinine-8-carboxylic acid] | 100 to 1000 | C (C represents an MIC of <1 μg/mL) | A (A represents an MIC>16 μg/mL) | C (C represents an MIC of <1 μg/mL) | B (B represents an MIC between 1 and 16 μg/mL inclusive) | 100 to 1000 | 100 to 1000 | < 100 | 100 to 1000 | B (B represents an MIC between 1 and 16 μg/mL inclusive) |  |  |  |  |  | 
O=C(Cn1cc(CCO)nn1)N[C@H]1Cc2cccc(C(=O)O)c2OB1O [Example 5, (R)-2-hydroxy-3-(2-(4-(2-hydroxyethyl)-11,2,3-triazol-1-yl)acetamido)-3,4-dihydro-2H-benzo[e][1,2]oxaborinine-8-carboxylic acid] | < 100 | B (B represents an MIC between 1 and 16 μg/mL inclusive) | B (B represents an MIC between 1 and 16 μg/mL inclusive) | C (C represents an MIC of <1 μg/mL) | B (B represents an MIC between 1 and 16 μg/mL inclusive) | 10000 to 100000 | < 100 | < 100 | 100 to 1000 | B (B represents an MIC between 1 and 16 μg/mL inclusive) |  |  |  |  |  | 
CCOC(=O)c1nnn(CC(=O)N[C@H]2Cc3cccc(C(=O)O)c3OB2O)c1C(=O)OCC [Example 11, (R)-3-(2-(4,5-bis(ethoxycarbonyl)-1H-1,2,3-triazol-1-yl)acetamido)-2-hydroxy-3,4-dihydro-2H-benzo[e][1,2]oxaborinine-8-carboxylic acid] | < 100 |  | A (A represents an MIC>16 μg/mL) | B (B represents an MIC between 1 and 16 μg/mL inclusive) | B (B represents an MIC between 1 and 16 μg/mL inclusive) | 1000 to 10000 | < 100 | < 100 | < 100 | B (B represents an MIC between 1 and 16 μg/mL inclusive) |  |  |  |  |  | 
C[Si](C)(C)c1cn(CC(=O)N[C@H]2Cc3cccc(C(=O)O)c3OB2O)nn1 [Example 9, (R)-2-hydroxy-3-(2-(4-(trimethylsilyl)-1H-1,2,3-triazol-1-yl)acetamido)-3,4-dihydro-2H-benzo[e][1,2]oxaborinine-8-carboxylic acid] |  |  | A (A represents an MIC>16 μg/mL) | B (B represents an MIC between 1 and 16 μg/mL inclusive) | A (A represents an MIC>16 μg/mL) |  | < 100 | < 100 | 100 to 1000 | A (A represents an MIC>16 μg/mL) | < 100 | 1000 to 10000 |  |  |  | 
C[C@@H](O)[C@H]1C(=O)N2C(C(=O)O)=C(S[C@@H]3CN[C@H](C(=O)N(C)C)C3)[C@H](C)[C@H]12 [Meropenem, meropenem, reference compound] |  |  |  |  |  |  |  |  |  |  |  |  | 16 | 128 | 64 | > 128
